From ChEMBL document CHEMBL1131959, “Synthesis of glucuronides of multidrug resistance reversing drug MS-209” (Bioorg Med Chem Lett, 1999)
Active and inactive are the calls of the source. The calls are words filed in the database; no cut-off is given here.

Key:
[1] = test system: Tumor Cell line; assay: Multidrug resistant(MDR) reversing activity in vitro in human tumor cells; Inactive; type: functional, cell-based
[2] = test system: Tumor Cell line; assay: Multidrug resistant(MDR) reversing activity in vitro in human tumor cells; Active; type: functional, cell-based

Compound | Reversing activity [1] | Reversing activity [2]
O=C(O)[C@H]1O[C@@H](O[C@@H](COc2cccc3ncccc23)CN2CCN(C(=O)C(c3ccccc3)c3ccccc3)CC2)[C@H](O)[C@@H](O)[C@@H]1O | inactive | 
O=C(C(c1ccccc1)c1ccccc1)N1CCN(C[C@@H](O)COc2cccc3ncccc23)CC1 |  | Active
O=C(O)[C@H]1O[C@@H](O[C@H](COc2cccc3ncccc23)CN2CCN(C(=O)C(c3ccccc3)c3ccccc3)CC2)[C@H](O)[C@@H](O)[C@@H]1O | inactive | 
